According to patent US3953483A, “17-Nor-6-methyl-steroids” (Takeda Chemical Industries, Ltd., priority 1973, dated 1976):
Entries after “also recorded” stand apart in the source; their conditions may differ.

Experiments:
anti-androgenic activity = settings: known compounds, background; cited from earlier work
liver = settings: known compound, background; cited from earlier work
[1] = test system: seminal vesicles, ventral prostate and dorsal prostates; test: anti-androgenic activity: inhibition of testosterone propionate-induced weight increase of secondary sex structures in castrated male rats, oral dosing; type: in vivo, rats (SD-JCL strain); settings: for Percent inhibition: Dorsal prostate / Percent inhibition: Seminal vesicles / Percent inhibition: Ventral prostate / Weight of organs: Dorsal prostate / Weight of organs: Seminal vesicles / Weight of organs: Ventral prostate: 5 rats; for Weight of organs: Dorsal prostate / Weight of organs: Seminal vesicles / Weight of organs: Ventral prostate: average ± standard error
Method: The following is the assay data on the anti-androgenic activity of 6-methylandrosta-4,6-dien-3-one(the test compound), a compound obtainable by the method of this invention. Testing procedure: Male rats of the SD-JCL strain, 21 days of age (body weights 40-55 g.) are castrated and, beginning on the next day, a daily dose of the test compound is suspended in 0.5 ml. of aqueous solvent and orally administered via a gastric catheter once daily, every day excepting Sundays, for a total of 10 times (12 days). Simultaneously with the administration of the test compound, a daily dose of 0.15 mg. of testosterone propionate is dissolved in 0.2 ml. of sesame oil and subcutaneously injected into the dorsal region of the neck.
On the day following the last day of administration, the rats are exsanguinated under ether anaesthesia and the seminal vesicles, ventral prostate and dorsal prostates are weighed. The anti-androgenic potency of the test compound is determined as follows.
dosed with testosterone
- dosed with testosterone
(%) dosed with testosterone

[2] = test compound 9.6mg. × 10 oral + testosterone propionate 0.15mg. × 10 s.c.
[3] = test compound 38.4mg. × 10 oral + testosterone propionate 0.15mg. × 10 s.c.
[4] = testosterone propionate 0.15mg. × 10 s.c. alone

## C[C@]12CC[C@H]3[C@@H](CCC4=CC(=O)CC[C@@H]43)[C@@H]1C[C@H](C1CCCCC1)[C@@H]2O [16β-cyclohexyl-17β-hydroxyestr-4-en-3-one]
anti-androgenic activity
  effectiveness by oral administration: little effective by oral administration

## CC[C@H]1C[C@H]2[C@@H]3CCC4=CC(=O)CC[C@@H]4[C@H]3CC[C@]2(C)[C@H]1O [16β-ethyl-17β-hydroxyestr-4-en-3-one]
anti-androgenic activity
  effectiveness by oral administration: little effective by oral administration

## CCCCCC(=O)O[C@]1(C(C)=O)CC[C@H]2[C@@H]3CCC4=CC(=O)CC[C@@H]4[C@H]3CC[C@@]21C [17α-caproyloxy-19-norprogesterone]
liver
  side effect: causes `fatty liver` as a side effect

## CC[C@H]1C[C@H]2[C@@H]3CCC4=CC(=O)CC[C@@H]4[C@H]3CC[C@]2(C)[C@H]1OC(C)=O [17β-acetyloxy-16β-ethylestr-4-en-3-one]
anti-androgenic activity
  effectiveness by oral administration: little effective by oral administration

## CC1=C[C@H]2[C@@H]3CCC[C@@]3(C)CC[C@@H]2[C@@]2(C)CCC(=O)C=C12 [test compound, 6-methylandrosta-4,6-dien-3-one]
[1]; oral, caused by testosterone propionate
  inhibition of weight increases of secondary sex structures / anti-androgenic activity (in words): significantly inhibits the weight increases of various secondary sex structures; also recorded: the degree of inhibition (percent inhibition) being proportional to the dosage; also recorded: potent anti-androgenic activity
[1]; [2]
  Percent inhibition: Dorsal prostate: 38%
  Percent inhibition: Seminal vesicles: 53%
  Percent inhibition: Ventral prostate: 34%
  Weight of organs: Dorsal prostate: 62 ± 3 mg
  Weight of organs: Seminal vesicles: 164 ± 15 mg
  Weight of organs: Ventral prostate: 100 ± 4 mg
[1]; [3]
  Percent inhibition: Dorsal prostate: 59%
  Percent inhibition: Seminal vesicles: 77%
  Percent inhibition: Ventral prostate: 53%
  Weight of organs: Dorsal prostate: 44 ± 2 mg
  Weight of organs: Seminal vesicles: 82 ± 5 mg
  Weight of organs: Ventral prostate: 74 ± 4 mg

## CCC(=O)O[C@H]1CC[C@H]2[C@@H]3CCC4=CC(=O)CC[C@]4(C)[C@H]3CC[C@]12C [testosterone propionate, reference compound]
[1]; [4]
  Weight of organs: Dorsal prostate: 96 ± 3 mg
  Weight of organs: Seminal vesicles: 337 ± 27 mg
  Weight of organs: Ventral prostate: 147 ± 7 mg
